Results taken from US20240382499A1, “INDUCERS OF SENESCENCE, IN COMBINATION WITH A SELECTIVE DEATH RECEPTOR 5 (DR5) AGONIST, FOR USE IN A METHOD OF TREATING CANCER” (Stichting Het Nederlands Kanker Instituut-Antoni van …, priority 2021, published 2024).
Residues, ends and D or L forms follow the SMILES beside them. *: point of attachment. Cbz = O=C(OCc1ccccc1)*; CH2F = FC*

Assays:
[1] = system: alisertib-induced senescent A549, Hep1 and MM231 cells; assay: Colony formation with IgG1-cona or IgA-cona-dim DR5 agonist antibodies; format: cell-based; details: side-by-side IgG1 and IgA-cona-dim forms of conatumumab
Experimental: (§1) FIG. 10: Colony formation in proliferating and alisertib-induced senescent A549 (A), Hep1 (B) and MM231 (C) cells with IgG1-cona or IgA-cona-dim DR5 agonist antibodies. Colony formation in proliferating and alisertib-induced senescent A549 cells treated with the low dose of 0.125 μg/ml IgA-cona-dim, 0.25 μM NEO2734 and 10 μM Z-VAD-FMK (D). Colony formation using low dose 0.25 μM of NEO2734 and 0.125 μg/ml IgA-cona-dim A549 cells made senescent by one-week treatment with 1 μM barasertib, 0.5 μM PF-06873600, 100 nM doxorubicin, 50 nM CFI-400945, 2 μM Etoposide or 1 μM TAS-119 (E).
Antibodies were generated by expression of SEQ 1 and SEQ 3 (IgG1-cona), SEQ 2 and SEQ 3 (IgA-cona), or SEQ 2, SEQ 3 and SEQ 4 (IgA-cona-dim) as described (Beyer et al., 2009. J Immunol Methods 346: 26-37), by employing the nucleotide sequences SEQ 5 and SEQ 6 (IgG1-cona), SEQ 6 and SEQ 7 (IgA-cona), or SEQ 6, SEQ 7 and SEQ 8 (IgA-cona-dim). SEQ 4 depicts a sequence of an immunoglobulin J chain, which links two or more IgA monomer units.

[2] = system: proliferating and senescent A549 cells; assay: Colony formation with low dose IgA-cona-dim, NEO2734 and Z-VAD-FMK; format: cell-based; details: 10 μM Z-VAD-FMK; alisertib-induced senescent A549
Experimental: as §1

Row | Compound | senolytic potency compared with IgG form [1] | rescue from IgA-cona-dim plus NEO2734 mediated senolysis [2]
1 | IgA-cona-dim: dimeric form of IgA-conatumumab, SEQ 2, SEQ 3 and SEQ 4 (J chain) | most potent DR5 agonist to eliminate senescent cells | 
2 | COC(=O)C[C@H](NC(=O)[C@H](C)NC(=O)[C@@H](NC(=O)OCc1ccccc1)C(C)C)C(=O)CF [Z-VAD-FMK] (Cbz-Val-Ala-Asp(OMe)-CH2F) |  | fully rescue the cells from senolysis
